Publication PMC8948939 (Pharmaceutics, 2022)
Where “and” joins values, the source holds several entries; their conditions need not be identical. Equal values may be shown once. Read-outs that look alike come from different tables or passages of the source.

Columns and labels:
[1] = test system: human liver microsomes (HLM); assay: Metabolic stability of voriconazole N-oxide and hydroxyvoriconazole in HLM; format: in vitro ADME; conditions: HLM 0.2 mg/mL; for depletion over time when incubated directly with HLM: 5-60 min, 0.137 and 1.10 µM; for % compared to a control incubation without HLM after 60 min: high concentration (1.10 µM), single replicates
Method: An incubation without HLM served as a control (n = 1).

CYP3A4 [2] = conditions: cited from earlier work
CYP2C19 [3] = biological target: T1, CYP2C19 (Homo sapiens, UniProt P33261); assay: IC50 and IC50 shift on CYP2C19 marker reaction (S-mephenytoin 4-hydroxylation) in HLM; format: in vitro ADME; parameters: tissue Corning Inc; host or cells: pooled human liver microsomes (150 donors); conditions: for time dependence of inhibition: IC50 shift assay
Method: (§1) Remaining activity (A, %) was calculated as the ratio of reaction velocities in the inhibited and non-inhibited incubations. IC50 and the steepness of the inhibition curve (H) were estimated by fitting the four-parameter inhibition model to the experimental data (Equation (9)). Maximum (Amax) and baseline activity (A0) were fixed to 100 and 0, respectively. […] (9) A,%=A0+Amax−A0/1+logCInhib/logIC50^H=100/1+logCInhib/logIC50^H […]
(§2) Supplementary Section S1. Marker reactions for CYP2C19, CYP2C9 and CYP3A4 […]
(§3) for CYP3A4 [1,2] were used to determine (i) intersystem extrapolation factors (ISEF), (ii) […]
(§4) Each probe substrate was incubated in the presence of each inhibitor. […]
(§5) were performed at concentrations of 0.2, 0.08 and 0.05 mg/mL HLM for CYP2C19, CYP2C9 and CYP3A4, respectively. IC50 and IC50 shift assays were performed at substrate […]
(§6) Reaction times were identical to those described

CYP2C9 [4] = biological target: T2, CYP2C9 (Homo sapiens, UniProt P11712); assay: IC50 and IC50 shift on CYP2C9 marker reaction (diclofenac 4-hydroxylation) in HLM; format: in vitro ADME; parameters: tissue Corning Inc; host or cells: pooled human liver microsomes (150 donors); conditions: for time dependence of inhibition: IC50 shift assay; for IC50 shift / IC50 shift at 30 min: human, human liver microsomes; for IC50 shift: pH 7.5, probe diclofenac 4-hydroxylation (4.73 µM diclofenac); for IC50 shift at 30 min: pH 7.5, probe diclofenac (4-hydroxylation), 4.73 µM
Method: as §1
Supplementary Section S1. […]
Two samples were taken
from each incubation after 15 and 25 min for investigations on CYP2C19, after 5 and
10 min for CYP2C9 and after 7 and 12 min for CYP3A4, respectively. […]
CYP2C9 and CYP3A4, respectively. IC50 and IC50 shift assays were performed at substrate
as §6

CYP3A4 [5] = biological target: T3, CYP3A4 (Homo sapiens, UniProt P08684); assay: IC50 and IC50 shift on CYP3A4 marker reaction (midazolam 1-hydroxylation) in HLM; format: in vitro ADME; parameters: tissue Corning Inc; host or cells: pooled human liver microsomes (150 donors); conditions: for time dependence of inhibition: IC50 shift assay; for IC50 shift: human, human liver microsomes, pH 7.5, probe midazolam 1-hydroxylation (4.60 µM midazolam)
Method: as §1, §2, §3
Two samples were taken […]
from each incubation after 15 and 25 min for investigations on CYP2C19, after 5 and 10 min for CYP2C9 and after 7 and 12 min for CYP3A4, respectively. […]
CYP2C9 and CYP3A4, respectively. IC50 and IC50 shift assays were performed at substrate […]
as §6

CYP2C19 [6] = biological target: T1, CYP2C19; assay: Type of reversible inhibition and Ki on CYP2C19 (S-mephenytoin 4-hydroxylation) in HLM; format: in vitro ADME; parameters: tissue Corning Inc; host or cells: pooled human liver microsomes (150 donors); conditions: for Type of Reversible Inhibition: CYP2C19, best model fit by AIC; for inhibitory effect on CYP2C19 relative to VRC (fold lower, from Ki): compared to VRC; for Ki: read-out: Ki (95% CI)
Method: (§7) Reaction velocities were investigated in function of the substrate ([S]) and inhibitor ([I]) concentration to determine KM, Vmax and Ki of the reaction. The obtained data were used to fit the three main models of reversible inhibition, i.e., competitive (Equation (10)), noncompetitive (Equation (11)) and uncompetitive (Equation (12)) using the “nls” function in R. The type of inhibition was determined according to the best model fit assessed with Akaike’s information criteria (AIC). […] (10) V=Vmax/1+KM/S1+I/Ki (11) V=Vmax/1+KM/S1+I/Ki (12) V=Vmax/1+KM/S+I/Ki […]
as §2, §3
(§8) (i) Experiments for the determination of Michaelis-Menten kinetics in HLM were performed at protein concentrations of 0.02, 0.04 and 0.05 mg/mL for the marker reactions of CYP2C19, CYP2C9 and CYP3A4 (n = 3 each), respectively. Two samples were taken from each incubation after 15 and 25 min for investigations on CYP2C19, after 5 and 10 min for CYP2C9 and after 7 and 12 min for CYP3A4, respectively. […]
(§9) were applied as substrate concentrations. […]
as §4, §5, §6

CYP2C9 [7] = biological target: T2, CYP2C9; assay: Type of reversible inhibition and Ki on CYP2C9 (diclofenac 4-hydroxylation) in HLM; format: in vitro ADME; parameters: tissue Corning Inc; host or cells: pooled human liver microsomes (150 donors); conditions: for Type of Reversible Inhibition: CYP2C9, best model fit by AIC; for Ki: read-out: Ki (95% CI)
Method: as §7, §2, §3, §8, §9, §4, §5, §6

CYP3A4 [8] = biological target: T3, CYP3A4; assay: Type of reversible inhibition and Ki on CYP3A4 (midazolam 1-hydroxylation) in HLM; format: in vitro ADME; parameters: tissue Corning Inc; host or cells: pooled human liver microsomes (150 donors); conditions: for Type of Reversible Inhibition / Ki: CYP3A4; for Type of Reversible Inhibition: best model fit by AIC; for Ki: midazolam 1-hydroxylation, HLM, read-out: Ki (95% CI)
Method: as §7, §2, §3, §8, §9, §4, §5, §6

CYP2C19 [9] = biological target: T1, CYP2C19; parameters: tissue Corning Inc; host or cells: pooled human liver microsomes (150 donors); conditions: ref Hohmann et al. 42; cited from earlier work
CYP2C9 [10] = biological target: T2, CYP2C9; parameters: tissue Corning Inc; host or cells: pooled human liver microsomes (150 donors); conditions: ref Giri et al. 84; cited from earlier work
HLM, HIM and rhCYP = assay: Pre-investigations of metabolite formation from VRC in HLM, HIM and rhCYP; format: in vitro ADME, human
Excerpt: As an essential prerequisite, the linearity of metabolite formation with regard to reaction time and enzyme concentration, as well as the absence of substrate depletion (<10%), were investigated.

[11] = cited from earlier work
[12] = 30 min pre-incubation in the absence of NADPH
[13] = 30 min pre-incubation in the absence of NADPH, read-out: IC50 NADPH (−) (95% Confidence Interval)
[14] = 30 min pre-incubation in the presence of NADPH
[15] = 30 min pre-incubation in the presence of NADPH, read-out: IC50 NADPH (+) (95% Confidence Interval)
[16] = without pre-incubation, […] S-mephenytoin, HLM, NO and OH–VRC estimates exceed applied concentrations (max 34.2 µM), read-out: IC50 (95% Confidence Interval)
[17] = without pre-incubation, 4.73 µM diclofenac, HLM, read-out: IC50 (95% Confidence Interval)
[18] = without pre-incubation, 4.60 µM midazolam, HLM, read-out: IC50 (95% Confidence Interval)

T3 sequence (P08684 2-503 limits assumed): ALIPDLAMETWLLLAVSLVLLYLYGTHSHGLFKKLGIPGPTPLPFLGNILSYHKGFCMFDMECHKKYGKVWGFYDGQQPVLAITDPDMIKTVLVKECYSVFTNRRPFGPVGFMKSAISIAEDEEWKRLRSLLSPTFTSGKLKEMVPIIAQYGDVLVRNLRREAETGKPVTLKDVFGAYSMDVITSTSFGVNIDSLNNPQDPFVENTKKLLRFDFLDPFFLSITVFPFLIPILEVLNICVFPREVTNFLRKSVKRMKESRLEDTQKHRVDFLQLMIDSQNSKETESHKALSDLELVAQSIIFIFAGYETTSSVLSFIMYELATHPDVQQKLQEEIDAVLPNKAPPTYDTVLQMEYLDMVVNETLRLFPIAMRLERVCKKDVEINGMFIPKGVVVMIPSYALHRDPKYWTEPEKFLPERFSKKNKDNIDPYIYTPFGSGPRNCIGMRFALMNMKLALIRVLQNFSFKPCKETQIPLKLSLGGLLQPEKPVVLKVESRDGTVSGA
T2 sequence (P11712 whole entry): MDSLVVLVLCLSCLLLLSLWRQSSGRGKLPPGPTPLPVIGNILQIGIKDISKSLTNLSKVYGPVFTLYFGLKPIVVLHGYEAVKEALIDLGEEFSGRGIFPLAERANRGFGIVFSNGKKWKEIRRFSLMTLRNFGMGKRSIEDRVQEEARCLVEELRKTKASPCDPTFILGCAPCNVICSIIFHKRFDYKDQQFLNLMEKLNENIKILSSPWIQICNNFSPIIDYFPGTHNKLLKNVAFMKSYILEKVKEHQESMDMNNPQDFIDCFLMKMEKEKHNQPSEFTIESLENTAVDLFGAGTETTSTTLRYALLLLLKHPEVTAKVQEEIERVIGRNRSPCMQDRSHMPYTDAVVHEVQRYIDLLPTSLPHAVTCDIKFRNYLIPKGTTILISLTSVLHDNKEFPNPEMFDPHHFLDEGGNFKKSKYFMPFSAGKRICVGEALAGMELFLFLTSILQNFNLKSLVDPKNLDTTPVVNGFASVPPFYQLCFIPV
T1 sequence (P33261 whole entry): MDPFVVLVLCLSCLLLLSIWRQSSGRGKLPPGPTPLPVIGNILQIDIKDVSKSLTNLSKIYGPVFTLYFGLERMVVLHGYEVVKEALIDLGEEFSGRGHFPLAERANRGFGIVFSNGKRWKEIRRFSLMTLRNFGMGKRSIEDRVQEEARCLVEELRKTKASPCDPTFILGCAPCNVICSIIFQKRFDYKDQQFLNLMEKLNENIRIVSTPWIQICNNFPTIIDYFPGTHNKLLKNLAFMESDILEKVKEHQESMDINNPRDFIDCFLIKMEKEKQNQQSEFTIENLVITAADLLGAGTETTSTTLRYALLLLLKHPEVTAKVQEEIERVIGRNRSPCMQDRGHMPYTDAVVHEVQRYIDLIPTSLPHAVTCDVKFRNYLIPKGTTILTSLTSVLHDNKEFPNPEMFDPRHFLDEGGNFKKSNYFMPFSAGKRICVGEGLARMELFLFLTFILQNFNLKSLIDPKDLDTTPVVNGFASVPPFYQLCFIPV

depletion over time when incubated directly with HLM [1]	% compared to a control incubation without HLM after 60 min [1]	IC50 Shift NADPH (−) (CYP2C19 [3]; [12])	IC50 (CYP2C19 [3]; [13]) [µM]	IC50 Shift NADPH (+) (CYP2C19 [3]; [14])	IC50 (CYP2C19 [3]; [15]) [µM]	time dependence of inhibition (CYP2C19 [3])	IC50 (CYP2C19 [3]; [16]) [µM]	IC50 (CYP2C9 [4]; [13]) [µM]	IC50 (CYP2C9 [4]; [15]) [µM]	time dependence of inhibition (CYP2C9 [4])	IC50 shift (CYP2C9 [4]; [12])	IC50 shift at 30 min (CYP2C9 [4]; [14])	IC50 (CYP2C9 [4]; [17]) [µM]	IC50 (CYP3A4 [5]; [13]) [µM]	IC50 (CYP3A4 [5]; [15]) [µM]	time dependence of inhibition (CYP3A4 [5])	IC50 shift (CYP3A4 [5]; [12])	IC50 shift (CYP3A4 [5]; [14])	IC50 (CYP3A4 [5]; [18]) [µM]	Structure (SMILES)	also measured
no depletion	96.9% and 109%	0.641	> 34.2	0.900	> 34.2	Time-independent inhibition	> 34.2	10.1	14.9	Time-independent inhibition	1.34	0.899	13.4	6.96	2.91	Time-independent inhibition	0.644	> 1.5	4.48	C[C@@H](c1nc[n+]([O-])cc1F)[C@](O)(Cn1cncn1)c1ccc(F)cc1F [NO, voriconazole N-oxide]	IC50 (CYP3A4 [2]; ref Giri et al. 84): 8.7 µM; IC50 (CYP3A4 [2]; ref Hohmann et al. 42): 146 µM; IC50 Shift NADPH (+) (CYP3A4 [5]; [14]): 1.54; Type of Reversible Inhibition (CYP2C19 [6]): noncompetitive; inhibitory effect on CYP2C19 relative to VRC (fold lower, from Ki) (CYP2C19 [6]): 31 fold; Ki (CYP2C19 [6]): 58.6 µM; Type of Reversible Inhibition (CYP2C9 [7]): competitive; inhibitory effect on CYP2C9 relative to VRC (fold, from Ki) (CYP2C9 [7]; compared to VRC): 2.1 fold; Ki (CYP2C9 [7]): 5.47 µM; Type of Reversible Inhibition (CYP3A4 [8]): noncompetitive; Ki (CYP3A4 [8]): 5.24 µM; inhibitory effect on CYP3A4 relative to VRC (fold, from Ki) (CYP3A4 [8]; compared to VRC): 1.9 fold; IC50 (CYP2C19 [9]): 40.2 µM; IC50 (CYP2C9 [10]): 11.2 µM
no depletion	94.7%	1.17	> 34.2	1.24	33.6	Time-independent inhibition	> 34.2	3.68	3.64	Time-independent inhibition	0.997	1.01	3.67	0.579	1.57	Time-independent inhibition	> 1.5	0.65	1.02	C[C@@H](c1ncnc(O)c1F)[C@](O)(Cn1cncn1)c1ccc(F)cc1F [OH–VRC, hydroxyvoriconazole]	OH–VRC formation from VRC (HLM, HIM and rhCYP): not observed; plasma concentrations, fold lower than those of NO [11]: up to 30 fold; IC50 Shift NADPH (−) (CYP3A4 [5]; [12]): 1.76; Type of Reversible Inhibition (CYP2C19 [6]): competitive; inhibitory effect on CYP2C19 relative to VRC (fold lower, from Ki) (CYP2C19 [6]): 6.1 fold; Ki (CYP2C19 [6]): 11.6 µM; Type of Reversible Inhibition (CYP2C9 [7]): competitive; Ki (CYP2C9 [7]): 2.8 µM; Type of Reversible Inhibition (CYP3A4 [8]): noncompetitive; Ki (CYP3A4 [8]): 2.53 µM
